Measurements: patent publication US20240317709A1, “Lysophosphatidic Acid Receptor Antagonists for Breast Cancer Treatment” (Lakehead University, priority 2023, published 2024)
Where two headings read alike, the source gives them in different places.

Legend:
LPA1 [1] = biological target: T1, LPA1 (Homo sapiens, UniProt Q92633); assay: in vitro cAMP assay using a CHO cell line overexpressing LPA1 receptor; assay type: cell-based; parameters: GFP; host or cells: CHO-K1, transiently transfected; settings: for % inhibition: cAMP assay, 1 μM LPA, 100 nM forskolin, test concentration not given
Target sequence in this assay (Q92633 whole entry): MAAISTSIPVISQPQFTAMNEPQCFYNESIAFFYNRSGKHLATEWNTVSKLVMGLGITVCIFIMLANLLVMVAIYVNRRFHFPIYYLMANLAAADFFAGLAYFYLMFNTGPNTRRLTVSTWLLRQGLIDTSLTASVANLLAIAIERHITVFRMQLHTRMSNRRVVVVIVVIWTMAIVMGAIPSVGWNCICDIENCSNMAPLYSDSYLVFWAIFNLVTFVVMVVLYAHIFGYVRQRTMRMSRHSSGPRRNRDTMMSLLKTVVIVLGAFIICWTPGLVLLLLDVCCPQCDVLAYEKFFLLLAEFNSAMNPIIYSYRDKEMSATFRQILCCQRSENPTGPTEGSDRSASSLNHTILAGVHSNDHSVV

MDA-MB-231 cells [2] = assay: colony formation assay; assay type: cell-based; settings: LPA with 1f 0, 0.5, 1.0 or 1.5 mM, FIG. 2
Method: In order to study the effect of LPA and the compound 1f on the proliferation, migration, and invasion of MDA-MB-231, several in vitro assays were performed. Colony formation assay is a cell survival assay based on the ability of a single cell to grow into a colony and was performed to evaluate cell proliferation (17).
MDA-MB-231 cells were trypsinized and plated in 6-well plate at a density of 1,000 cells/well and then cultured in 10% FBS DMEM. Cells were allowed to attach overnight and then exposed to LPA or LPA with 1f (0, 0.5, 1.0 or 1.5 mM). Forty-eight hours after chemical treatment, the media was replaced with fresh media, and the plates were incubated at 37° C. Ten days later, the cells were fixed and stained with 4% paraformaldehyde in 0.1% crystal violet. The number of colonies, defined as >50 cells/colony were counted, and the number of colonies were calculated using ImageJ.

MDA-MB-231 cells [3] = assay: wound healing assay; assay type: cell-based; settings: LPA with 1f 0, 0.5, 1.0 or 1.5 mM, 48 h, FIG. 3A
Method: Wound healing assay is a well-established method to determine cell migration in vitro. Firstly, a scratch was created in the cell monolayer, and then cells migrate to close the scratch. Cell migration rate can be measured using this method.
Cells were seeded in a six-well plate at a density of 3×10^5 cells/well. When the cells formed a tight cell monolayer, a 200-μl plastic pipette tip was used to make a scratch. Cells were washed with PBS to remove cell debris, cultured in serum-free DMEM medium and exposed to LPA or LPA with 1f (0, 0.5, 1.0 or 1.5 mM) for 48 h.
Wound photographs were recorded at the indicated times and analyzed by ImageJ software. All assays were conducted three times in our study.

MDA-MB-231 cells [4] = assay: transwell cell migration assay; assay type: cell-based; settings: LPA with 1f 0, 0.5, 1.0 or 1.5 mM, 48 h, FIG. 3B
Method: (§1) In addition, transwell migration/invasion assays were performed to further confirm the effect of LPA and 1f on cell migration and invasion. Transwell assay is based on a chamber of two media-filled partitions separated by a microporous membrane. Cells were plated in the upper chamber and are allowed to migrate to the lower chamber through the membrane pores with the stimulation of LPA and 1f. For the invasion assay, a layer of basement membrane extract was precoated on the chamber to block the pores of the membrane and prevent non-invasive cells from migrating through the membranes. Invasive cells are able to secret proteases which degrade the membrane extract in order to invade through the membrane.
(§2) Transwell assays were conducted in 24-well transwell plates (pore size: 8 μm) to assess the migratory and invasive capacities of MDA-MB-231 cells. For migration assays, 2×10^4 cells were placed in 200 μl of serum-free DMEM in the upper chamber and then 500 μl of DMEM containing 10% FBS was added to the lower chamber. For the invasion assays, the chamber inserts were precoated with 50 μl of 1:9 mixture of basement membrane extract (R&D Systems) and DMEM overnight in a 37° C. incubator, then 6×10^4 cells were seeded in the upper chamber. 500 μl of DMEM containing 10% FBS was added to the lower chamber. Cells were treated with LPA or LPA with 1f (0, 0.5, 1.0 or 1.5 mM) for 48 h. […]

MDA-MB-231 cells [5] = assay: transwell cell invasion assay; assay type: cell-based; settings: basement membrane extract coated, LPA with 1f 0, 0.5, 1.0 or 1.5 mM, 48 h, FIG. 3B
Method: as §1, §2

LPA1 [6] = biological target: T1, LPA1; settings: literature value (ref 15); read-out: IC50 in calcium release assay (LPA1); cited from earlier work
Target sequence in this assay (Q92633 whole entry, species assumed): as the sequence (Q92633 whole entry) above

LPAs = biological target: T2, LPAs (Homo sapiens, UniProt Q9UBY5); settings: literature value (ref 15); read-out: LPAs IC50 in calcium release assay; cited from earlier work
T2 sequence (Q9UBY5 1-353): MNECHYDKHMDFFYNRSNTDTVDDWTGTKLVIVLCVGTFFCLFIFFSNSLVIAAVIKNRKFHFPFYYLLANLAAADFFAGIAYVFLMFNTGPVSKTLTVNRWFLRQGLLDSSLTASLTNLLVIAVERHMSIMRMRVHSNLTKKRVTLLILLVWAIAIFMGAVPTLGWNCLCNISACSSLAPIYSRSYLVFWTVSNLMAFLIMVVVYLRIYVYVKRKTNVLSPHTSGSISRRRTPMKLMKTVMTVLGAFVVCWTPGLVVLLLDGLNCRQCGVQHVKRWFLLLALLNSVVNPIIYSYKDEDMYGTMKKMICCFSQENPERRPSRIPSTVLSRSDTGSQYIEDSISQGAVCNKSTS

lung fibroblast = settings: in vitro; literature (ref 15); cited from earlier work
[7] = system: histamine release induced by LPA; settings: in vivo; literature (ref 15); cited from earlier work
[8] = concentration to reverse 50% of the inhibitory effect of 1 μM 18:1 LPA on forskolin-mediated cAMP production, CHO-K1 overexpressing LPA1

Structure (SMILES)	% inhibition (LPA1 [1]) [%]	IC50 (LPA1 [1]; [8]) [nM]	also measured
Cc1nnn(-c2ccc(-c3ccc(C4(C(=O)O)CC4)cc3)cc2)c1NC(=O)OCc1ccc(F)cc1 [Compound 1b, 1-(4′-(5-((((4-fluorobenzyl)oxy)carbonyl)amino)-4-methyl-1H-1,2,3-triazol-1-yl)-[1,1′-biphenyl]-4-yl)cyclopropane-1-carboxylic acid]	58.43	3340	
Cc1nnn(-c2ccc(-c3ccc(C4(C(=O)O)CC4)cc3)cc2)c1NC(=O)OCc1cccc(F)c1 [Compound 1c, 1-(4′-(5-((((3-fluorobenzyl)oxy)carbonyl)amino)-4-methyl-1H-1,2,3-triazol-1-yl)-[1,1′-biphenyl]-4-yl)cyclopropane-1-carboxylic acid]	77.1	2150	
Cc1nnn(-c2ccc(-c3ccc(C4(C(=O)O)CC4)cc3)cc2)c1NC(=O)OCc1ccccc1F [Compound 1d, 1-(4′-(5-((((2-fluorobenzyl)oxy)carbonyl)amino)-4-methyl-1H-1,2,3-triazol-1-yl)-[1,1′-biphenyl]-4-yl)cyclopropane-1-carboxylic acid]	81.9	1490	
Cc1nnn(-c2ccc(-c3ccc(C4(C(=O)O)CC4)cc3)cc2)c1NC(=O)OC(C)c1ccc(F)cc1 (stereo not shown) [Compound 1e, 1-(4′-(5-(((1-(4-fluorophenyl)ethoxy)carbonyl)amino)-4-methyl-1H-1,2,3-triazol-1-yl)-[1,1-biphenyl]-4-yl)cyclopropane-1-carboxylic acid]	102.1	93.3	
Cc1nnn(-c2ccc(-c3ccc(C4(C(=O)O)CC4)cc3)cc2)c1NC(=O)OC(C)c1cccc(F)c1 (stereo not shown) [Compound 1f, 1-(4′-(5-(((1-(3-fluorophenyl)ethoxy)carbonyl)amino)-4-methyl-1H-1,2,3-triazol-1-yl)-[1,1′-biphenyl]-4-yl)cyclopropane-1-carboxylic acid]	109.8	16	inhibition of LPA-induced cell proliferation (colony formation) (MDA-MB-231 cells [2]): inhibited LPA-induced MDA-MB-231 cell proliferation in a dose-dependent manner; inhibition of LPA-induced cell migration (wound healing) (MDA-MB-231 cells [3]): impeded cell migration dose-dependently; inhibition of LPA-induced cell migration (transwell) (MDA-MB-231 cells [4]): hindered by 1f dose-dependently; inhibition of LPA-induced cell invasion (transwell) (MDA-MB-231 cells [5]): hindered by 1f dose-dependently; IC50 (nM) (LPA1 [1]; [8]): lower than the control compound
CCc1cccc(COC(=O)Nc2c(C)nnn2-c2ccc(-c3ccc(C4(C(=O)O)CC4)cc3)cc2)c1 [Compound 1h, 1-(4′-(5-((((3-ethylbenzyl)oxy)carbonyl)amino)-4-methyl-1H-1,2,3-triazol-1-yl)-[1,1′-biphenyl]-4-yl)cyclopropane-1-carboxylic acid]	115.7	91.2	
Cc1nnn(-c2ccc(-c3ccc(C4(C(=O)O)CC4)cc3)cc2)c1NC(=O)NCc1ccccn1 [Compound 2a, 1-(4′-(4-methyl-5-(3-(pyridin-2-ylmethyl)ureido)-1H-1,2,3-triazol-1-yl)-[1,1′-biphenyl]-4-yl)cyclopropane-1-carboxylic acid]	41.8	1000	
Cc1nnn(-c2ccc(-c3ccc(C4(C(=O)O)CC4)cc3)cc2)c1NC(=O)NCc1ccc(F)cc1 [Compound 2b, 1-(4′-(5-(3-(4-fluorobenzyl)ureido)-4-methyl-1H-1,2,3-triazol-1-yl)-[1,1′-biphenyl]-4-yl)cyclopropane-1-carboxylic acid]	40.5	3150	
Cc1nnn(-c2ccc(-c3ccc(C4(C(=O)O)CC4)cc3)cc2)c1NC(=O)NCc1cccc(F)c1 [Compound 2c, 1-(4′-(5-(3-(3-fluorobenzyl)ureido)-4-methyl-1H-1,2,3-triazol-1-yl)-[1,1′-biphenyl]-4-yl)cyclopropane-1-carboxylic acid]	88.1	2000	
Cc1nnn(-c2ccc(-c3ccc(C4(C(=O)O)CC4)cc3)cc2)c1NC(=O)NCc1ccccc1F [Compound 2d, 1-(4′-(5-(3-(2-fluorobenzyl)ureido)-4-methyl-1H-1,2,3-triazol-1-yl)-[1,1′-biphenyl]-4-yl)cyclopropane-1-carboxylic acid]	49.5	4470	
Cc1nnn(-c2ccc(-c3ccc(C4(C(=O)O)CC4)cc3)cc2)c1NC(=O)N[C@H](C)c1ccc(F)cc1 [Compound 2e, (R)-1-(4′-(5-(3-(1-(4-fluorophenyl)ethyl)ureido)-4-methyl-1H-1,2,3-triazol-1-yl)-[1,1′-biphenyl]-4-yl)cyclopropane-1-carboxylic acid]	102.0	780	
Cc1nnn(-c2ccc(-c3ccc(C4(C(=O)O)CC4)cc3)cc2)c1NC(=O)N[C@H](C)c1ccccc1 [Compound 2f, (R)-1-(4′-(4-methyl-5-(3-(1-phenylethyl)ureido)-1H-1,2,3-triazol-1-yl)-[1,1′-biphenyl]-4-yl)cyclopropane-1-carboxylic acid]	108.1	242	
Cc1nnn(-c2ccc(-c3ccc(C4(C(=O)O)CC4)cc3)cc2)c1NC(=O)N[C@@H](C)c1ccccc1 [Compound 2g, (S)-1-(4′-(4-methyl-5-(3-(1-phenylethyl)ureido)-1H-1,2,3-triazol-1-yl)-[1,1′-biphenyl]-4-yl)cyclopropane-1-carboxylic acid]	92.7	299	
Cc1nnn(-c2ccc(-c3ccc(C4(C(=O)O)CC4)cc3)cc2)c1NC(=O)NC(C)c1ccccc1 (stereo not shown) [Compound 2h, 1-(4′-(4-methyl-5-(3-(1-phenylethyl)ureido)-1H-1,2,3-triazol-1-yl)-[1,1′-biphenyl]-4-yl)cyclopropane-1-carboxylic acid]	83.8	240	
Cc1nnn(-c2ccc(-c3ccc(C4(C(=O)O)CC4)cc3)cc2)c1NC(=O)O[C@H](C)c1ccccc1 [RO-2]	111.6	18.3	IC50 (LPA1 [6]): 25 nM; IC50 (LPAs): > 30 µM; inhibition of lung fibroblast contraction induced by LPA (lung fibroblast): inhibited lung fibroblast proliferation and contraction induced by LPA in vitro; inhibition of lung fibroblast proliferation induced by LPA (lung fibroblast): inhibited lung fibroblast proliferation and contraction induced by LPA in vitro; histamine release induced by LPA [7]: ameliorated histamine release induced by LPA in vivo
